Values after ≈ are worked out from the molar mass of the structure shown.
Assays:
Klebsiella oxytoca = assay: Antibiotic sensitivity (MIC) of Klebsiella oxytoca isolated from sputum, Example 2; assay type: cell-based; conditions: for Interps / MIC: Klebsiella oxytoca isolate from experimental sputum sample
MRSA [1] = assay: Antibiotic sensitivity (MIC) of 5/5 sputum culture isolate, Example 4; assay type: cell-based, Staphylococcus aureus; conditions: 5/5 Sputum cx, Positive for MRSA
From the text: (§1) FIG. 5M illustrates the use of systems and methods to isolate MRSA in sputum allowing for faster initiation of anti-MRSA therapy and clinical cure. This patient was intubated for hypoxemia and pneumonia. The patient placed on ceftriaxone and azithromycin. The systems and methods allowed identification of MRSA in the patient's sputum.
(§2) The original culture taken on 5/5 (finalized on 5/7) was identical to a subsequent culture taken on 5/14 that only grew MRSA.

S. aureus [2] = assay: Antibiotic sensitivity (MIC) of S. aureus grown from bone incubated in the transport system, Example 3; assay type: cell-based, Staphylococcus aureus; conditions: for MIC: unit assumed
Description: FIG. 5L illustrates another view of the cultures. […] The sample was incubated for 24 hours at 37 degrees Celsius. […] While not being bound to a specific theory, the native bone may sequester sessile infection in biofilms, especially in relatively devitalized bone associated with vasculopathy. Incubation in mucolytic allows for breakdown of the biofilm and the glycerol broth allows for a nutritive environment to coax these recalcitrant organisms into a cultivable state.

S. aureus [3] = assay: Antibiotic sensitivity (MIC) of 5/14 sputum culture isolate, Example 4; assay type: cell-based, Staphylococcus aureus; conditions: 5/14 Sputum cx
From the text: as §2

Staphylococcus aureus = assay: Antibiotic sensitivity (MIC) of original blood culture isolate, Example 3; assay type: cell-based; conditions: Rare Colonies Staphylococcus aureus
Description: While not being bound to a specific theory, the native bone may sequester sessile infection in biofilms, especially in relatively devitalized bone associated with vasculopathy. Incubation in mucolytic allows for breakdown of the biofilm and the glycerol broth allows for a nutritive environment to coax these recalcitrant organisms into a cultivable state.

S. Pneumoniae = assay: Antibiotic sensitivity pattern (MIC) of S. pneumoniae isolated from sputum, Example 1; assay type: cell-based, Streptococcus pneumoniae; conditions: for Interpretation / MIC: S. pneumoniae isolate from experimental sputum sample; for MIC: unit assumed
From the text: FIG. 5E illustrates the mucoid alpha Streptococcus only on the experimental sample is Streptococcus pneumonia. Streptococcus pneumoniae not isolated using standard methods.
The patient had invasive pneumococcal disease as noted by a positive Streptococcus pneumoniae urine antigen result. This sample is most impressive in that the systems and methods described herein allowed isolation of Streptococcus pneumoniae despite the patient being on ceftriaxone for two days at the time of collection. The isolate is sensitive to ceftriaxone according to the sensitivity pattern. S in the Interpretation column of the tables below indicates sensitivity, and R indicates resistance.

MRSA [4] = assay: Clinical course of intubated patient with MRSA in sputum, Example 4; assay type: in vivo, human; conditions: one patient, MRSA pneumonia, on ventilator
From the text: as §1
FIG. 5N illustrates the yellow colony in the experimental site is obvious. The patient decompensated clinically to the point of near death until proper MRSA antibiotic therapy was initiated. Hypoxemia worsened and oxygen requirements increased prior to MRSA therapy.

[5] = 05 S. aureus, bone incubated 24 hours at 37 degrees Celsius

| Compound | Interps (Klebsiella oxytoca) | MIC (Klebsiella oxytoca) [µg/mL] | Interps (MRSA [1]) | MIC (MRSA [1]) [µg/mL] | MIC (S. aureus [2]; [5]) [µg/mL] | Interps (S. aureus [3]) | MIC (S. aureus [3]) [µg/mL] | Interps (Staphylococcus aureus) | MIC (Staphylococcus aureus) [µg/mL] | also measured |
| --- | --- | --- | --- | --- | --- | --- | --- | --- | --- | --- |
| NCC[C@H](O)C(=O)N[C@@H]1C[C@H](N)[C@@H](O[C@H]2O[C@H](CN)[C@@H](O)[C@H](O)[C@H]2O)[C@H](O)[C@H]1O[C@H]1O[C@H](CO)[C@@H](O)[C@H](N)[C@H]1O [Amikacin] | S | ≤ 16 | – | – | – | – | – | – | – | – |
| CC1(C)S[C@@H]2[C@H](NC(=O)[C@H](N)c3ccccc3)C(=O)N2[C@H]1C(=O)O [Ampicillin] | R | > 16 | – | – | – | – | – | – | – | – |
| Cc1nnc(SCC2=C(C(=O)O)N3C(=O)[C@@H](NC(=O)Cn4cnnn4)[C@H]3SC2)s1 [Cefazolin] | R | 8 (≈ 17.6 µM) | R | 8 (≈ 17.6 µM) | ≤ 4 | R | 16 (≈ 35.2 µM) | S | ≤ 4 | Interps (S. aureus [2]; [5]): S |
| CO/N=C(\C(=O)N[C@@H]1C(=O)N2C(C(=O)[O-])=C(C[N+]3(C)CCCC3)CS[C@H]12)c1csc(N)n1 [Cefepime] | S | ≤ 2 | – | – | – | – | – | – | – | – |
| CO/N=C(\C(=O)N[C@@H]1C(=O)N2C(C(=O)O)=C(COC(C)=O)CS[C@H]12)c1csc(N)n1 [Cefotaxime] | S | ≤ 2 | – | – | – | – | – | – | – | – |
| CO[C@@]1(NC(=O)Cc2cccs2)C(=O)N2C(C(=O)O)=C(COC(N)=O)CS[C@@H]21 [Cefoxitin] | S | ≤ 8 | – | – | – | – | – | – | – | – |
| CO/N=C(\C(=O)N[C@@H]1C(=O)N2C(C(=O)O)=C(CSc3nc(=O)c(=O)[nH]n3C)CS[C@H]12)c1csc(N)n1 [Ceftriaxone] | S | ≤ 1 | – | – | – | – | – | – | – | sensitivity of the organism (Klebsiella oxytoca): sensitive; sensitivity of the isolate according to the sensitivity pattern (S. Pneumoniae): sensitive; Interpretation (S. Pneumoniae): S; MIC (S. Pneumoniae): ≤ 0.25 µg/mL |
| O=C(O)c1cn(C2CC2)c2cc(N3CCNCC3)c(F)cc2c1=O [Ciprofloxacin] | S | ≤ 1 | – | – | – | – | – | – | – | – |
| CCC[C@@H]1C[C@@H](C(=O)N[C@@H]([C@H]2O[C@H](SC)[C@H](O)[C@@H](O)[C@H]2O)[C@H](C)Cl)N(C)C1 [Clindamycin] | – | – | R | > 4 | ≤ 0.25 | R | > 4 | S | ≤ 0.25 | Interps (S. aureus [2]; [5]): S; Interpretation (S. Pneumoniae): R; MIC (S. Pneumoniae): > 0.5 µg/mL |
| CCCCCCCCCC(=O)N[C@@H](Cc1c[nH]c2ccccc12)C(=O)N[C@H](CC(N)=O)C(=O)N[C@@H](CC(=O)O)C(=O)N[C@@H]1C(=O)NCC(=O)N[C@@H](CCCN)C(=O)N[C@@H](CC(=O)O)C(=O)N[C@H](C)C(=O)N[C@@H](CC(=O)O)C(=O)NCC(=O)N[C@H](CO)C(=O)N[C@@H]([C@H](C)CC(=O)O)C(=O)N[C@@H](CC(=O)c2ccccc2N)C(=O)O[C@@H]1C [Daptomycin] | – | – | – | – | 0.5 (≈ 0.309 µM) | – | – | S | 0.5 (≈ 0.309 µM) | Interps (S. aureus [2]; [5]): S |
| CC[C@H]1OC(=O)[C@H](C)[C@@H](O[C@H]2C[C@@](C)(OC)[C@@H](O)[C@H](C)O2)[C@H](C)[C@@H](O[C@@H]2O[C@H](C)C[C@H](N(C)C)[C@H]2O)[C@](C)(O)C[C@@H](C)C(=O)[C@H](C)[C@@H](O)[C@]1(C)O [Erythromycin] | – | – | – | – | – | – | – | – | – | Interpretation (S. Pneumoniae): R; MIC (S. Pneumoniae): > 0.5 µg/mL |
| C[C@@H](O)[C@H]1C(=O)N2C(C(=O)O)=C(SCCN=CN)C[C@H]12 [Imipenem] | S | ≤ 0.5 | – | – | – | – | – | – | – | – |
| C[C@H]1COc2c(N3CCN(C)CC3)c(F)cc3c(=O)c(C(=O)O)cn1c23 [Levofloxacin] | S | ≤ 0.25 | – | – | – | – | – | – | – | Interpretation (S. Pneumoniae): S; MIC (S. Pneumoniae): 1 µg/mL (≈ 2.77 µM) |
| CC(=O)NC[C@H]1CN(c2ccc(N3CCOCC3)c(F)c2)C(=O)O1 [Linezolid] | – | – | S | 2 (≈ 5.93 µM) | 2 (≈ 5.93 µM) | S | 2 (≈ 5.93 µM) | S | 2 (≈ 5.93 µM) | Interps (S. aureus [2]; 24 h): S; clinical outcome of therapy (MRSA [4]): allowed the patient to come off the ventilator |
| C[C@@H](O)[C@H]1C(=O)N2C(C(=O)O)=C(S[C@@H]3CN[C@H](C(=O)N(C)C)C3)[C@H](C)[C@H]12 [Meropenem] | S | ≤ 1 | – | – | – | – | – | – | – | – |
| Cc1onc(-c2ccccc2)c1C(=O)N[C@@H]1C(=O)N2[C@@H]1SC(C)(C)[C@@H]2C(=O)O [Oxacillin] | – | – | R | > 2 | ≤ 0.25 | R | > 2 | S | ≤ 0.25 | Interps (S. aureus [2]; 24 h): S |
| CO[C@H]1/C=C/O[C@@]2(C)Oc3c(C)c(O)c4c(O)c(c(/C=N/N5CCN(C)CC5)c(O)c4c3C2=O)NC(=O)/C(C)=C\C=C\[C@H](C)[C@H](O)[C@@H](C)[C@@H](O)[C@@H](C)[C@H](OC(C)=O)[C@@H]1C [Rifampin] | – | – | S | ≤ 1 | ≤ 1 | S | ≤ 1 | – | – | Interps (S. aureus [2]; 24 h): S |
| CN(C)[C@@H]1C(O)=C(C(N)=O)C(=O)[C@@]2(O)C(O)=C3C(=O)c4c(O)cccc4[C@@](C)(O)[C@H]3C[C@@H]12 [Tetracycline] | S | ≤ 4 | S | ≤ 1 | – | S | ≤ 1 | R | – | Interps (S. aureus [2]; [5]): R |
| NC[C@H]1O[C@H](O[C@H]2[C@H](O)[C@@H](O[C@H]3O[C@H](CO)[C@@H](O)[C@H](N)[C@H]3O)[C@H](N)C[C@@H]2N)[C@H](N)C[C@@H]1O [Tobramycin] | S | ≤ 1 | – | – | – | – | – | – | – | – |
| CN[C@H](CC(C)C)C(=O)N[C@H]1C(=O)N[C@@H](CC(N)=O)C(=O)N[C@H]2C(=O)N[C@H]3C(=O)N[C@H](C(=O)N[C@H](C(=O)O)c4cc(O)cc(O)c4-c4cc3ccc4O)[C@H](O)c3ccc(c(Cl)c3)Oc3cc2cc(c3O[C@@H]2O[C@H](CO)[C@@H](O)[C@H](O)[C@H]2O[C@H]2C[C@](C)(N)[C@H](O)[C@H](C)O2)Oc2ccc(cc2Cl)[C@H]1O [Vancomycin] | – | – | S | 2 (≈ 1.38 µM) | 1 (≈ 0.69 µM) | S | 2 (≈ 1.38 µM) | S | 1 (≈ 0.69 µM) | Interps (S. aureus [2]; [5]): S; Interpretation (S. Pneumoniae): S; MIC (S. Pneumoniae): 0.25 µg/mL (≈ 0.173 µM); clinical outcome of therapy (MRSA [4]): allowed the patient to come off the ventilator |
| CC[C@H]1OC(=O)[C@H](C)[C@@H](O[C@H]2C[C@@](C)(OC)[C@@H](O)[C@H](C)O2)[C@H](C)[C@@H](O[C@@H]2O[C@H](C)C[C@H](N(C)C)[C@H]2O)[C@](C)(O)C[C@@H](C)CN(C)[C@H](C)[C@@H](O)[C@]1(C)O [azithromycin] | – | – | – | – | – | – | – | – | – | macrolide resistance of the isolate (S. Pneumoniae; inferred from macrolide resistance): resistant |
| Gentamicin | S | ≤ 1 | S | ≤ 1 | ≤ 1 | S | ≤ 1 | S | ≤ 1 | Interps (S. aureus [2]; [5]): S |
| Penicillin | – | – | – | – | – | – | – | – | – | Interpretation (S. Pneumoniae): S; MIC (S. Pneumoniae): ≤ 0.03 µg/mL |

— US12312579B2, “Method for culturing H. pylori for future testing” (BioSherpa, LLC, priority 2019, dated 2025)
